What was measured:
[1] = system: K562; assay: cells; details: Homo sapiens, K562, 48 h
[2] = system: THP-1; assay: Antiproliferative activity against human THP-1 cells after 48 hrs by MTT assay; type: functional; parameters: concentration or dose not given beside the values
[3] = system: BaF3; assay: Antiproliferative activity against mouse BaF3 cells harbouring Bcr-Abl T315I assessed of cell viability at 10 uM incubated for 72 hrs by Celltiter-glo luminescent cell viability assay relative to control; type: functional
[4] = biological target: Bcr/Abl fusion protein (Homo sapiens, UniProt P00519); assay: Inhibition of wild type Bcr-Abl (unknown origin) using Abltide as substrate incubated for 1 hr by luminescence based ADP-glo assay; type: protein assay
Chain of Bcr/Abl fusion protein (P00519 whole entry, the tested form may be a part): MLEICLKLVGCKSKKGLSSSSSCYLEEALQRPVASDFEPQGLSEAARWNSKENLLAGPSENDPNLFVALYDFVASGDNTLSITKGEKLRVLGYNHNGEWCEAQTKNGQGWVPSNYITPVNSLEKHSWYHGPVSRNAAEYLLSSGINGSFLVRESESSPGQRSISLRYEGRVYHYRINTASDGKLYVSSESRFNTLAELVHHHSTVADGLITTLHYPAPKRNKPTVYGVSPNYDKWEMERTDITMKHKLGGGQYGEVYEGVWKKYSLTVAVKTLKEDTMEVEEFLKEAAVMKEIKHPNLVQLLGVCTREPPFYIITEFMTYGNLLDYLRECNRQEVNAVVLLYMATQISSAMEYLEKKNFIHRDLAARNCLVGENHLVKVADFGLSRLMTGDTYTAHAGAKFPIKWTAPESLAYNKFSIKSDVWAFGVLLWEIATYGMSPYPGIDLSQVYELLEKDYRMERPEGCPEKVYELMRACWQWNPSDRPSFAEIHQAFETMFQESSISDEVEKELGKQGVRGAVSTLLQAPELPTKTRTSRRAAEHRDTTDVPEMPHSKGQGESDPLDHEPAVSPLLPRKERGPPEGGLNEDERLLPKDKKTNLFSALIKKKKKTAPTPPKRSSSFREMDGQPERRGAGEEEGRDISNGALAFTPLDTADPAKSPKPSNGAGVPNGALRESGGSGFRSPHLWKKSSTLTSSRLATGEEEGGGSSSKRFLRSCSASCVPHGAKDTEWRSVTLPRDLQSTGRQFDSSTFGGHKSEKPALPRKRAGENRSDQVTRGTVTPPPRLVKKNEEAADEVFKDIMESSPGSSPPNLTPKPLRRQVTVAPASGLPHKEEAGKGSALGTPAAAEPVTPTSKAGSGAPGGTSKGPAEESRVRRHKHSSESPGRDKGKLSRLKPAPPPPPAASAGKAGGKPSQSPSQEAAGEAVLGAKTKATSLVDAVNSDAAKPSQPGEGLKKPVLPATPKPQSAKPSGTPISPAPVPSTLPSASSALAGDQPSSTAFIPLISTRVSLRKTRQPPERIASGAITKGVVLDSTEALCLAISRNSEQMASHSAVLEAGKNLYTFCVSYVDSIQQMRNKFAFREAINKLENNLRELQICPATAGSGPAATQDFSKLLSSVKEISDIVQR
Chain of Bcr/Abl fusion protein (P11274 whole entry, further chain, the tested form may be a part): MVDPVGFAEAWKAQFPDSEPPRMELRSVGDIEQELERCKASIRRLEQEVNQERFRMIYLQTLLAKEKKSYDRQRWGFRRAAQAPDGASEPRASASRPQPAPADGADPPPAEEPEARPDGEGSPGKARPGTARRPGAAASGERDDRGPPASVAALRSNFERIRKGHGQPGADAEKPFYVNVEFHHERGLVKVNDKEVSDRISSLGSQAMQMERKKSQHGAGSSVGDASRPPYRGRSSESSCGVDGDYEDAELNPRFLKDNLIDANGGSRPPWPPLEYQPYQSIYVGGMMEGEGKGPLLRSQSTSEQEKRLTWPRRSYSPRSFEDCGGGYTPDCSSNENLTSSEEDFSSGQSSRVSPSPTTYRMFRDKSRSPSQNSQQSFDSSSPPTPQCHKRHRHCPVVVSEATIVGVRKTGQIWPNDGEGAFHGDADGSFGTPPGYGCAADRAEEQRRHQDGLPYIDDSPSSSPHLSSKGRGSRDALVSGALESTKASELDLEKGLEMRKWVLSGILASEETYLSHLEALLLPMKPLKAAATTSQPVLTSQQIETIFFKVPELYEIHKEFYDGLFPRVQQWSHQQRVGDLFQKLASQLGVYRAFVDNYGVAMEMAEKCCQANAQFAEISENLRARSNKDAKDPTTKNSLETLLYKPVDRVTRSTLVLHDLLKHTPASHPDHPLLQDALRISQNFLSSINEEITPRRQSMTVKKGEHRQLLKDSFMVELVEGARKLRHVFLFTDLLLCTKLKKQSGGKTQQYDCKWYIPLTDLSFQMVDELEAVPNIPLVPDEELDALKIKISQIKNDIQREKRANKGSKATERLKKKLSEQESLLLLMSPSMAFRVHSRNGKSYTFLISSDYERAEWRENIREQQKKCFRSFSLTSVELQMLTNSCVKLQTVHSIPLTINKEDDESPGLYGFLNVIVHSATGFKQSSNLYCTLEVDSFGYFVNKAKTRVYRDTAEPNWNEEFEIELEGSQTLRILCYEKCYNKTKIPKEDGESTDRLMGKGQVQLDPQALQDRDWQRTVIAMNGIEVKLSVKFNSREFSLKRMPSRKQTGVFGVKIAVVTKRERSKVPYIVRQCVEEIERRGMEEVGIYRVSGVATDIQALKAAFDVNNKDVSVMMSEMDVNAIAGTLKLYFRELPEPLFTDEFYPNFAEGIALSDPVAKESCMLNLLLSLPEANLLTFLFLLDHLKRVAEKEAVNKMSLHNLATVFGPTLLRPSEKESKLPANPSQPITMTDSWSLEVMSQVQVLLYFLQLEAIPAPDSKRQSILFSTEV

[5] = Inhibition of Bcr-Abl T315Ialpha mutant (unknown origin) using Abltide as substrate incubated for 1 hr by luminescence based ADP-glo assay; parameters: species or system Homo sapiens
[6] = system: HEK293; assay: Antiproliferative activity against HEK293 cells after 48 hrs by MTT assay; type: toxicity, cell-based; parameters: concentration or dose not given beside the values; details: human, hek293, 48 h
[7] = system: BaF3; assay: Antiproliferative activity against mouse BaF3 cells harbouring Bcr-Abl T315I assessed of cell viability at 2 uM incubated for 72 hrs by Celltiter-glo luminescent cell viability assay relative to control; type: functional
[8] = system: BaF3; assay: Antiproliferative activity against mouse BaF3 cells harbouring Bcr-Abl T315I assessed of cell viability at 30 uM incubated for 72 hrs by Celltiter-glo luminescent cell viability assay relative to control; type: functional

Structure (SMILES)	IC50 [1] [nM]	Activity [2] [%]	inhibition at 10 µM [3] [%]	IC50 [4] [nM]	IC50 [5] [nM]	Activity [6] [%]	inhibition at 2 µM [7] [%]	inhibition at 30 µM [8] [%]
CC(C)(C)[C@H](NC(=O)c1cccc(-c2cncc(C(=O)NC3CC3)c2)c1)C(=O)Nc1ccc(Cl)c(C(F)(F)F)c1	8.47	100	65.6	34	207	90	7.2	–
CCN(CC)C(=O)c1cncc(-c2cccc(C(=O)N[C@@H](COC(C)(C)C)C(=O)Nc3ccc(Cl)c(C(F)(F)F)c3)c2)c1	8.11	84	–	33	132	100	–	58.4
CC(C)(C)OC[C@H](NC(=O)c1ccc(-c2cncc(C(=O)NC3CC3)c2)cc1)C(=O)Nc1ccc(Cl)c(C(F)(F)F)c1	2.5	79	–	15.5	128	84	–	69.7
CC(C)(C)OC[C@H](NC(=O)c1ccc(-c2ccnc(N)c2)cc1)C(=O)Nc1ccc(Cl)c(C(F)(F)F)c1	3.02	56	25.5	0.87	144	94	0.7	99.8
CC(=O)Nc1ccc(-c2cccc(C(=O)N[C@@H](COC(C)(C)C)C(=O)Nc3ccc(Cl)c(C(F)(F)F)c3)c2)cn1	19.4	64	–	56	723	98	–	77.1
CC(C)(C)OC[C@H](NC(=O)c1cccc(-c2cncc(C(=O)NC3CC3)c2)c1)C(=O)Nc1ccc(Cl)c(C(F)(F)F)c1	8.86	69	94.1	9.3	608	95	1.93	–
CC(C)(C)OC[C@H](NC(=O)c1cccc(-c2ccc(N)nc2)c1)C(=O)Nc1ccc(Cl)c(C(F)(F)F)c1	1.27	100	–	0.27	105	96	–	-5
CC(C)(C)OC[C@H](NC(=O)c1cccc(-c2ccc(NC(=O)C(C)(C)C)nc2)c1)C(=O)Nc1ccc(Cl)c(C(F)(F)F)c1	1.26	73	–	8.61	436	72	–	-5.67
CCN(CC)C(=O)c1cncc(-c2cccc(C(=O)N[C@@H](CO)C(=O)Nc3ccc(Cl)c(C(F)(F)F)c3)c2)c1	4.92	75	–	3.57	295	84	–	53.2
O=C(NC1CC1)c1cncc(-c2ccc(C(=O)N[C@@H](CO)C(=O)Nc3ccc(Cl)c(C(F)(F)F)c3)cc2)c1	1.68	58	–	1.11	60	89	–	82.5
CC(C)(C)C(=O)Nc1cc(-c2ccc(C(=O)N[C@H](C(=O)Nc3ccc(Cl)c(C(F)(F)F)c3)C(C)(C)C)cc2)ccn1	5.36	94	–	16.8	481	87	–	8.24
CCN(CC)C(=O)c1cncc(-c2cccc(C(=O)N[C@H](C(=O)Nc3ccc(Cl)c(C(F)(F)F)c3)C(C)(C)C)c2)c1	2.66	55	–	6.69	148	100	–	50.8
CCN(CC)C(=O)c1cncc(-c2ccc(C(=O)N[C@@H](COC(C)(C)C)C(=O)Nc3ccc(Cl)c(C(F)(F)F)c3)cc2)c1	6.26	100	–	5.46	144	73	–	35
CS(=O)(=O)Nc1ccc(-c2cccc(C(=O)N[C@@H](CO)C(=O)Nc3ccc(Cl)c(C(F)(F)F)c3)c2)cn1	1.33	83	–	0.93	217	94	–	62.8
CC(C)(C)OC[C@H](NC(=O)c1cccc(-c2ccc(NC(=O)C3CC3)nc2)c1)C(=O)Nc1ccc(Cl)c(C(F)(F)F)c1	–	74	–	3.75	204	92	–	-4.27
CC(C)(C)OC[C@H](NC(=O)c1ccc(-c2ccnc(C(=O)NC3CC3)c2)cc1)C(=O)Nc1ccc(Cl)c(C(F)(F)F)c1	10.7	62	22.5	11.4	183	84	0	–
CC(C)(C)OC[C@H](NC(=O)c1ccc(-c2ccnc(NC(=O)C(C)(C)C)c2)cc1)C(=O)Nc1ccc(Cl)c(C(F)(F)F)c1	3.12	63	–	4.44	303	90	–	-3.86
Cc1ccc(C(=O)Nc2ccc(CN3CCN(C)CC3)c(C(F)(F)F)c2)cc1C#Cc1cnc2cccnn12 [PONATINIB]	0.049	3	–	–	–	55	–	–
CC(C)(C)C(=O)Nc1ccc(-c2cccc(C(=O)N[C@@H](CO)C(=O)Nc3ccc(Cl)c(C(F)(F)F)c3)c2)cn1	4.86	77	96.8	7.29	504	100	0.99	–
O=C(NC1CC1)c1cncc(-c2cccc(C(=O)N[C@@H](CO)C(=O)Nc3ccc(Cl)c(C(F)(F)F)c3)c2)c1	2.79	72	–	1.35	348	99	–	66.1
CCN(CC)C(=O)c1cncc(-c2ccc(C(=O)N[C@H](C(=O)Nc3ccc(Cl)c(C(F)(F)F)c3)C(C)(C)C)cc2)c1	10.2	56	–	4.5	185	97	–	42.8
CCN(CC)C(=O)c1cncc(-c2ccc(C(=O)N[C@@H](CO)C(=O)Nc3ccc(Cl)c(C(F)(F)F)c3)cc2)c1	12.2	100	–	0.27	261	74	–	-1.59
CC(=O)Nc1cc(-c2ccc(C(=O)N[C@@H](CO)C(=O)Nc3ccc(Cl)c(C(F)(F)F)c3)cc2)ccn1	2.64	72	–	0.8	136	91	–	58.8
Nc1cc(-c2ccc(C(=O)N[C@@H](CO)C(=O)Nc3ccc(Cl)c(C(F)(F)F)c3)cc2)ccn1	0.36	100	–	0.24	99	83	–	-3.39
CC(=O)Nc1ccc(-c2cccc(C(=O)N[C@H](C(=O)Nc3ccc(Cl)c(C(F)(F)F)c3)C(C)(C)C)c2)cn1	10.1	100	100	7.26	165	86	7.81	–
CS(=O)(=O)Nc1cc(-c2ccc(C(=O)N[C@@H](CO)C(=O)Nc3ccc(Cl)c(C(F)(F)F)c3)cc2)ccn1	0.13	87	–	0.33	87	78	–	5.71

Reference: ChEMBL document CHEMBL6083208, “Integrating amino acids into Bcr-Abl inhibitors: design, synthesis, biological evaluation, and in silico studies” (RSC Med Chem, 2024)
